According to BigSolDB 2.1:

CC(=NC#N)N(C)Cc1ccc(Cl)nc1
solubility (mole fraction)
Settings	278.15 K	283.15 K	288.15 K	293.15 K	298.15 K	303.15 K	308.15 K	313.15 K	318.15 K
in 1,4-dioxane	–	–	0.0693	0.0799	0.0941	0.113	0.132	0.153	0.175
in DMF	0.175	0.201	0.229	0.269	0.318	0.368	0.421	0.477	0.542
in DMSO	–	–	–	0.376	0.426	0.481	0.54	0.608	0.68
in NMP	0.197	0.221	0.255	0.299	0.352	0.405	0.46	0.523	0.589
in acetone	0.104	0.118	0.138	0.162	0.191	0.226	0.264	0.303	0.346
in ethanol	0.0162	0.0192	0.0232	0.0284	0.0328	0.0382	0.0448	0.05	0.0572
in ethyl acetate	0.0106	0.0128	0.0155	0.019	0.0233	0.0281	0.0332	0.039	0.0448
in ethylene glycol	0.00978	0.0106	0.0134	0.0163	0.0194	0.023	0.0269	0.0313	0.0367
in isobutanol	0.0028	0.00315	0.0037	0.00452	0.00519	0.00613	0.00696	0.00821	0.00932
in isopropanol	0.0067	0.00763	0.00886	0.0108	0.0127	0.0147	0.0166	0.0195	0.0221
in methanol	0.0199	0.0227	0.0273	0.0325	0.0382	0.0452	0.0532	0.0619	0.0703
in n-butanol	0.00149	0.00165	0.00202	0.00242	0.00284	0.00337	0.00378	0.00447	0.00507
in water	0.000146	0.000173	0.000213	0.000269	0.000348	0.00045	0.000572	0.000721	0.000911
